In US20260053811A1, “METHODS OF TREATING HYPERTENSION IN OBESE SUBJECTS” (Mineralys Therapeutics, Inc., priority 2022, published 2026):

Tested on: hypertensive subjects
Assay: Seated automated office blood pressure (AOBP) in randomized, placebo-controlled, dose-ranging study
Assay type: in vivo, human
Set-up: Difference from placebo in change in blood pressure: unit not given here
Procedure: A randomized, double-blinded, placebo-controlled, dose-ranging, multicenter study was conducted to evaluate the effect of orally administered Compound A HBr on blood pressure for the treatment of hypertension in male and female subjects ≥18 years of age.
The study consists of two parts. For enrollment into Part 1 of the study, a subject's value of plasma renin activity (PRA) must be ≤1 ng/mL/h based on morning measurement. If the value of PRA >1 ng/mL/h based on morning measurement, then subjects may be eligible to enter Part 2 of the study.
For Part 1, 163 enrolled subjects ≥18 years of age were randomized into 6 equal treatment groups (1:1:1:1:1:1) to 12.5 mg BID, 25 mg BID, 12.5 mg QD, 50 mg QD, 100 mg QD, or placebo. After a review of interim clinical data, the 2 lowest dose levels (12.5 mg QD and 12.5 mg BID) were stopped for future randomization due to a lack of consistent meaningful reduction of blood pressure, but the patients randomized to that point remained in the study through completion. Thus, after the review of interim clinical data, subjects were randomized into 4 equal treatment groups (1:1:1:1) to 25 mg BID, 50 mg QD, 100 mg QD, or placebo.
For Part 2, 36 enrolled subjects ≥18 years of age were randomized (5:1) to either 100 mg QD Compound A HBr or placebo such that the Compound A HBr treatment group consisted of approximately 30 subjects and the placebo treatment group will consist of approximately 6 subjects.
Subjects orally administered the assigned study drug (Compound A HBr or placebo) according to the assigned dosing regimen for 8 weeks beginning on Study Day 1. All subjects in Part 1 (regardless of dosing group) received BID dosing to preserve the integrity of the blind; active drug is administered as the morning dose for all QD dose groups. Subjects returned to the research facility or were seen by the clinical investigator or approved home health care professional at the end of Study Weeks 1, 2, 3, 4, 5, 6, 7, and 8 (±2 days) for protocol-defined efficacy and safety assessments and procedures, assessment of adverse events (AEs), and confirmation of compliance with study drug usage. Subjects also completed a telephone visit and blood pressure (BP) check at home approximately 3 days post last dose of study drug. Subjects attended up to 14 full clinic visits, including a pre-Screening visit, a Screening/start of Placebo Run-in visit, a second visit during Placebo Run-in, a clinic visit to initiate the ABPM procedure, a Randomization visit, 8 weekly visits during double-blind treatment, and an end-of-study visit scheduled 4 weeks after the last study treatment for final efficacy and safety assessments.
An automated oscillometric sphygmomanometer device was used to measure the subjects' systolic and diastolic blood pressure in office after approximately 5 minutes of rest in the seated position.
The primary endpoint is the change in office-measured (mean of last 2 of 5 unattended measurements using an automated oscillometric sphygmomanometer device after approximately 5 minutes of rest in the seated position) systolic blood pressure (SBP) from baseline to the end of Study Week 8.
Secondary endpoints of this study were: • (a) Change in 24-hour ambulatory blood pressure monitoring (ABPM) parameters (systolic and diastolic) from baseline to the end of Study Week 7. • (b) Change in office-measured SBP from baseline to the end of Study Weeks 1, 2, 3, 4, 5, 6, and 7. • (c) Change in office-measured diastolic blood pressure (DBP) from baseline to the end of Study Weeks 1, 2, 3, 4, 5, 6, 7, and 8. • (d) Proportion of subjects who achieve office-measured BP of ≤130/80 mm Hg by the end of Study Week 8.

[1] = 12.5 mg QD, Week 1, Part 1, FAS
[2] = 12.5 mg QD, Week 2, Part 1, FAS
[3] = 12.5 mg QD, Week 3, Part 1, FAS
[4] = 12.5 mg QD, Week 4, Part 1, FAS
[5] = 12.5 mg QD, Week 5, Part 1, FAS
[6] = 12.5 mg QD, Week 6, Part 1, FAS
[7] = 12.5 mg QD, Week 7, Part 1, FAS
[8] = 12.5 mg QD, Week 8, Part 1, FAS

Structure (SMILES): CC(=O)N[C@H]1CC[C@H](NC(=O)CN2CCN(c3nncc(-c4ccc(C)cc4)n3)CC2)CC1 [Compound A HBr]
- Difference from placebo in change in blood pressure (12.5 mg QD, BMI >30): −2.5
- Difference from placebo in change in blood pressure (12.5 mg QD, Baseline BPsys Low tertile): −10.7
- Difference from placebo in change in blood pressure (12.5 mg QD, Thiazide No): 2.6
- Seated AOBP DBP change from baseline (CFB), Mean (SD) [1]: 2.87 (12.31) mmHg
- Seated AOBP DBP, Mean (SD) [1]: 85.26 (13.88) mmHg
- Seated AOBP SBP change from baseline (CFB), Mean (SD) [1]: −5.65 (13.96) mmHg
- Seated AOBP SBP, Mean (SD) [1]: 141.43 (15.98) mmHg
- Seated AOBP DBP change from baseline (CFB), Mean (SD) [2]: 0.68 (8.89) mmHg
- Seated AOBP DBP, Mean (SD) [2]: 81.23 (9.21) mmHg
- Seated AOBP SBP change from baseline (CFB), Mean (SD) [2]: −1.86 (16.36) mmHg
- Seated AOBP SBP, Mean (SD) [2]: 143.73 (17.32) mmHg
- Seated AOBP DBP change from baseline (CFB), Mean (SD) [3]: −1.20 (9.13) mmHg
- Seated AOBP DBP, Mean (SD) [3]: 81.80 (13.73) mmHg
- Seated AOBP SBP change from baseline (CFB), Mean (SD) [3]: −4.15 (13.14) mmHg
- Seated AOBP SBP, Mean (SD) [3]: 142.80 (18.14) mmHg
- LSM Δ with Placebo, seated AOBP DBP (MMRM) [4]: −1.96 mmHg
- Modelled (MMRM) LSM (SEM) change from baseline, seated AOBP DBP [4]: −2.50 (1.60) mmHg
- Seated AOBP DBP change from baseline (CFB), Mean (SD) [4]: −1.80 (9.84) mmHg
- Seated AOBP DBP, Mean (SD) [4]: 81.20 (14.03) mmHg
- Seated AOBP SBP change from baseline (CFB), Mean (SD) [4]: −3.95 (15.74) mmHg
- Seated AOBP SBP, Mean (SD) [4]: 143.00 (18.03) mmHg
- Seated AOBP DBP change from baseline (CFB), Mean (SD) [5]: 0.82 (14.46) mmHg
- Seated AOBP DBP, Mean (SD) [5]: 83.74 (14.32) mmHg
- Seated AOBP SBP change from baseline (CFB), Mean (SD) [5]: −3.53 (12.49) mmHg
- Seated AOBP SBP, Mean (SD) [5]: 144.21 (13.11) mmHg
- Seated AOBP DBP change from baseline (CFB), Mean (SD) [6]: −4.17 (10.04) mmHg
- Seated AOBP DBP, Mean (SD) [6]: 79.06 (13.07) mmHg
- Seated AOBP SBP change from baseline (CFB), Mean (SD) [6]: −8.64 (16.52) mmHg
- Seated AOBP DBP change from baseline (CFB), Mean (SD) [7]: −6.11 (12.05) mmHg
- Seated AOBP DBP, Mean (SD) [7]: 77.11 (12.74) mmHg
- Seated AOBP SBP change from baseline (CFB), Mean (SD) [7]: −11.08 (19.26) mmHg
- Seated AOBP SBP, Mean (SD) [7]: 136.56 (19.58) mmHg
- LSM Δ from Placebo, change from baseline in seated AOBP SBP (MMRM) [8]: −1.53 mmHg
- LSM Δ with Placebo, seated AOBP DBP (MMRM) [8]: −2.12 mmHg
- Modelled (MMRM) LSM (SEM) change from baseline, seated AOBP DBP [8]: −3.76 (2.02) mmHg
- Modelled (MMRM) LSM (SEM) change from baseline, seated AOBP SBP [8]: −5.63 (3.16) mmHg
- Seated AOBP DBP change from baseline (CFB), Mean (SD) [8]: −1.78 (13.33) mmHg
- Seated AOBP DBP, Mean (SD) [8]: 81.44 (17.24) mmHg
- Seated AOBP SBP change from baseline (CFB), Mean (SD) [8]: −6.86 (19.85) mmHg
- Seated AOBP SBP, Mean (SD) [8]: 140.78 (22.01) mmHg
- Subjects with seated AOBP SBP/DBP ≤130/80 mmHg: No [8]: 17 (73.9) n (%)
- Subjects with seated AOBP SBP/DBP ≤130/80 mmHg: Yes [8]: 6 (26.1) n (%)
- Difference from placebo in change in blood pressure (25 mg BID, BMI 25-30): −1.1
- Difference from placebo in change in blood pressure (25 mg BID, BMI >30): −9.1
- Proportion of subjects with AOBP ≤130/80 mmHg (25 mg BID, Part 1, Week 8): 43.3%
- Difference from placebo in change in blood pressure (25 mg BID, Thiazide No): −4.7
